# Measurements from the supplement of paper PMC10307832.
# Assays:
# Assay in all cases: relative viability (nuclei count vs DMSO), 5 days (fraction); higher = more cells survive
# BMX-IN-1 + OSI-027 = compound: C=CC(=O)Nc1cc(-n2c(=O)ccc3cnc4ccc(-c5ccc(NS(C)(=O)=O)cc5)cc4c32)ccc1C [BMX-IN-1] + COc1cccc2cc(-c3nc([C@H]4CC[C@H](C(=O)O)CC4)n4ncnc(N)c34)[nH]c12 [OSI-027] (partner 0.5 µM)
# Summary of the method: (§1)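 Lung cancer cell lines in 1536-well plates got either a single drug or a fixed anchor-drug dose together with five library-drug doses (not always all listed) in √10 steps, by pin tool, on the day after seeding. Nuclei were counted after 5 days, and relative viability is the treated-to-vehicle ratio of nuclei counts. Values are medians of duplicate plates.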
# BMX-IN-1 + Dasatinib = compound: C=CC(=O)Nc1cc(-n2c(=O)ccc3cnc4ccc(-c5ccc(NS(C)(=O)=O)cc5)cc4c32)ccc1C [BMX-IN-1] + Cc1nc(Nc2ncc(C(=O)Nc3c(C)cccc3Cl)s2)cc(N2CCN(CCO)CC2)n1 [Dasatinib] (partner 0.075 µM)
# Summary of the method: as §1
# BMX-IN-1 + Pemetrexed = compound: C=CC(=O)Nc1cc(-n2c(=O)ccc3cnc4ccc(-c5ccc(NS(C)(=O)=O)cc5)cc4c32)ccc1C [BMX-IN-1] + Nc1nc2[nH]cc(CCc3ccc(C(=O)N[C@@H](CCC(=O)O)C(=O)O)cc3)c2c(=O)[nH]1 [Pemetrexed] (partner 0.2 µM)
# Summary of the method: as §1
# BMX-IN-1 + Phenformin = compound: C=CC(=O)Nc1cc(-n2c(=O)ccc3cnc4ccc(-c5ccc(NS(C)(=O)=O)cc5)cc4c32)ccc1C [BMX-IN-1] + N=C(N)NC(=N)NCCc1ccccc1 [Phenformin] (partner 250 µM)
# Summary of the method: as §1
# Ibrutinib + Crizotinib = compound: C=CC(=O)N1CCC[C@@H](n2nc(-c3ccc(Oc4ccccc4)cc3)c3c(N)ncnc32)C1 [Ibrutinib] + C[C@@H](Oc1cc(-c2cnn(C3CCNCC3)c2)cnc1N)c1c(Cl)ccc(F)c1Cl [Crizotinib] (partner 1 µM)
# Summary of the method: as §1
cell line,measurement,setting,value
SK-MES-1,relative viability,BMX-IN-1 + OSI-027; first compound 0.02 µM,0.783
same,relative viability,BMX-IN-1 + OSI-027; first compound 0.2 µM,0.645
same,relative viability,BMX-IN-1 + OSI-027; first compound 0.6325 µM,0.757
same,relative viability,BMX-IN-1 + OSI-027; first compound 2 µM,0.239
same,relative viability,BMX-IN-1 + Dasatinib; first compound 0.02 µM,0.43
same,relative viability,BMX-IN-1 + Dasatinib; first compound 0.2 µM,0.317
same,relative viability,BMX-IN-1 + Dasatinib; first compound 0.6325 µM,0.337
same,relative viability,BMX-IN-1 + Dasatinib; first compound 2 µM,0.34
same,relative viability,BMX-IN-1 + Pemetrexed; first compound 0.02 µM,1.11
same,relative viability,BMX-IN-1 + Pemetrexed; first compound 0.2 µM,1.11
same,relative viability,BMX-IN-1 + Pemetrexed; first compound 0.6325 µM,1.03
same,relative viability,BMX-IN-1 + Pemetrexed; first compound 2 µM,0.859
same,relative viability,BMX-IN-1 + Phenformin; first compound 0.02 µM,0.711
same,relative viability,BMX-IN-1 + Phenformin; first compound 0.2 µM,0.792
same,relative viability,BMX-IN-1 + Phenformin; first compound 0.6325 µM,0.695
same,relative viability,BMX-IN-1 + Phenformin; first compound 2 µM,0.724
same,relative viability,Ibrutinib + Crizotinib; first compound 0.005 µM,0.984
same,relative viability,Ibrutinib + Crizotinib; first compound 0.01581 µM,0.907
same,relative viability,Ibrutinib + Crizotinib; first compound 0.05 µM,1.02
same,relative viability,Ibrutinib + Crizotinib; first compound 0.5 µM,0.555
